Source: ChEMBL document CHEMBL1201862, “PubChem BioAssay data set” (2004)
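Cultured in 96-well plates, cells were exposed to test compound for 48 hours across five concentrations. GI50 is the concentration that inhibits growth by half.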 Activity calls are given as the source filed them. Cut-off read from the data, not from the text of the source: active = GI50 up to about 1.1 µM and inactive = higher.

Columns and labels:
Assay in all cases: growth of human tumour cells (NCI), 48 h
M19-MEL = tested on: M19-MEL
OVCAR-3 = tested on: OVCAR-3
EKVX = tested on: EKVX
UO-31 = tested on: UO-31
SNB-75 = tested on: SNB-75
KM-20L2 = tested on: KM-20L2
XF498 = tested on: XF498
NCI-H23 = tested on: NCI-H23
M14 = tested on: M14
UACC-62 = tested on: UACC-62
NCI-H460 = tested on: NCI-H460
IGROV-1 = tested on: IGROV-1
DMS-114 = tested on: DMS-114
SNB-19 = tested on: SNB-19
HL-60 = tested on: HL-60
K562 = tested on: K562
SK-MEL-5 = tested on: SK-MEL-5
786-0 = tested on: 786-0
MOLT-4 = tested on: MOLT-4
SW-620 = tested on: SW-620
UACC-257 = tested on: UACC-257
RXF 393 = tested on: RXF 393
CCRF-CEM = tested on: CCRF-CEM
CAKI-1 = tested on: CAKI-1
U-251 = tested on: U-251
LOX IMVI = tested on: LOX IMVI
A549 = tested on: A549
HOP-92 = tested on: HOP-92
SF-268 = tested on: SF-268
Malme-3M = tested on: Malme-3M
COLO 205 = tested on: COLO 205
OVCAR-8 = tested on: OVCAR-8
HCC 2998 = tested on: HCC 2998
ACHN = tested on: ACHN
SK-OV-3 = tested on: SK-OV-3
SN12C = tested on: SN12C
HCT-15 = tested on: HCT-15
NCI-H522 = tested on: NCI-H522
HOP-18 = tested on: HOP-18
TK-10 = tested on: TK-10
SF-539 = tested on: SF-539
NCI-H226 = tested on: NCI-H226
SF-295 = tested on: SF-295
OVCAR-5 = tested on: OVCAR-5
LXFL 529 = tested on: LXFL 529
SK-MEL-2 = tested on: SK-MEL-2
HCT-116 = tested on: HCT-116
HT-29 = tested on: HT-29
DMS-273 = tested on: DMS-273
SR = tested on: SR
KM12 = tested on: KM12
NCI/ADR-RES = tested on: NCI/ADR-RES
OVCAR-4 = tested on: OVCAR-4
HOP-62 = tested on: HOP-62
RPMI-8226 = tested on: RPMI-8226
A498 = tested on: A498
SK-MEL-28 = tested on: SK-MEL-28

CNC(=O)c1cccc2c(Nc3ccc(NS(C)(=O)=O)cc3OC)c3cccc(C)c3nc12
GI50 (M19-MEL): 585 nM (active) | GI50 (OVCAR-3): 1390 nM (inactive) | GI50 (EKVX): 1340 nM (inactive) | GI50 (UO-31): 425 nM (active) | GI50 (SNB-75): 122 nM (active) | GI50 (KM-20L2): 409 nM (active) | GI50 (XF498): 196 nM (active) | GI50 (NCI-H23): 41.8 nM (active) | GI50 (M14): 102 nM (active) | GI50 (UACC-62): 63.1 nM (active) | GI50 (NCI-H460): < 10 nM (active) | GI50 (IGROV-1): 1310 nM (inactive) | GI50 (DMS-114): 32.2 nM (active) | GI50 (SNB-19): 55.5 nM (active) | GI50 (HL-60): 13.1 nM (active) | GI50 (K562): 230 nM (active) | GI50 (SK-MEL-5): 131 nM (active) | GI50 (786-0): 48.3 nM (active) | GI50 (MOLT-4): 11.3 nM (active) | GI50 (SW-620): 169 nM (active) | GI50 (UACC-257): 1700 nM (inactive) | GI50 (RXF 393): 533 nM (active) | GI50 (CCRF-CEM): 13.3 nM (active) | GI50 (CAKI-1): 20.7 nM (active) | GI50 (U-251): 25.1 nM (active) | GI50 (LOX IMVI): 48.8 nM (active) | GI50 (A549): 15.1 nM (active) | GI50 (HOP-92): 228 nM (active) | GI50 (SF-268): 114 nM (active) | GI50 (Malme-3M): 430 nM (active) | GI50 (COLO 205): 542 nM (active) | GI50 (OVCAR-8): 333 nM (active) | GI50 (HCC 2998): 568 nM (active) | GI50 (ACHN): 14 nM (active) | GI50 (SK-OV-3): 54 nM (active) | GI50 (SN12C): 32.6 nM (active) | GI50 (HCT-15): 225 nM | GI50 (NCI-H522): 279 nM (active) | GI50 (HOP-18): 571 nM (active) | GI50 (TK-10): 1240 nM (inactive) | GI50 (SF-539): 62.8 nM (active) | GI50 (NCI-H226): 54.6 nM (active) | GI50 (SF-295): 33.3 nM (active) | GI50 (OVCAR-5): 282 nM (active) | GI50 (LXFL 529): 1910 nM (inactive) | GI50 (SK-MEL-2): 1640 nM (inactive) | GI50 (HCT-116): 243 nM (active) | GI50 (HT-29): 478 nM (active) | GI50 (DMS-273): 21.9 nM (active) | GI50 (SR): < 10 nM (active) | GI50 (KM12): 479 nM (active) | GI50 (NCI/ADR-RES): 2260 nM (inactive) | GI50 (OVCAR-4): 1900 nM (inactive) | GI50 (HOP-62): 24.4 nM (active) | GI50 (RPMI-8226): 52.5 nM (active) | GI50 (A498): 84.1 nM (active) | GI50 (SK-MEL-28): 2210 nM (inactive)
